# Results reported in US10422787B2, “System and method for single molecule detection” (ARIZONA BOARD OF REGENTS on behalf of ARIZONA STATE …, priority 2015, dated 2019).
# [ ]: non-standard residue; d: D form.
# Columns and labels:
# Type in all cases: binding
# α4β1 = molecular target: T1, α4β1 (Homo sapiens, UniProt P05556+P13612); test: STM break-junction, effect of electrode modification (ligand) on frequency of large current events
# T1 construct: purchased R&D Systems (Bio-Techne)
# αvβ3 = molecular target: T2, αvβ3 (Homo sapiens, UniProt P05106+P06756); test: as above
# T2 construct: the αVβ3 extracelluar domain of human integrin; purchased YO Proteins AB
# T2 sequence (P06756 31-992 limits assumed): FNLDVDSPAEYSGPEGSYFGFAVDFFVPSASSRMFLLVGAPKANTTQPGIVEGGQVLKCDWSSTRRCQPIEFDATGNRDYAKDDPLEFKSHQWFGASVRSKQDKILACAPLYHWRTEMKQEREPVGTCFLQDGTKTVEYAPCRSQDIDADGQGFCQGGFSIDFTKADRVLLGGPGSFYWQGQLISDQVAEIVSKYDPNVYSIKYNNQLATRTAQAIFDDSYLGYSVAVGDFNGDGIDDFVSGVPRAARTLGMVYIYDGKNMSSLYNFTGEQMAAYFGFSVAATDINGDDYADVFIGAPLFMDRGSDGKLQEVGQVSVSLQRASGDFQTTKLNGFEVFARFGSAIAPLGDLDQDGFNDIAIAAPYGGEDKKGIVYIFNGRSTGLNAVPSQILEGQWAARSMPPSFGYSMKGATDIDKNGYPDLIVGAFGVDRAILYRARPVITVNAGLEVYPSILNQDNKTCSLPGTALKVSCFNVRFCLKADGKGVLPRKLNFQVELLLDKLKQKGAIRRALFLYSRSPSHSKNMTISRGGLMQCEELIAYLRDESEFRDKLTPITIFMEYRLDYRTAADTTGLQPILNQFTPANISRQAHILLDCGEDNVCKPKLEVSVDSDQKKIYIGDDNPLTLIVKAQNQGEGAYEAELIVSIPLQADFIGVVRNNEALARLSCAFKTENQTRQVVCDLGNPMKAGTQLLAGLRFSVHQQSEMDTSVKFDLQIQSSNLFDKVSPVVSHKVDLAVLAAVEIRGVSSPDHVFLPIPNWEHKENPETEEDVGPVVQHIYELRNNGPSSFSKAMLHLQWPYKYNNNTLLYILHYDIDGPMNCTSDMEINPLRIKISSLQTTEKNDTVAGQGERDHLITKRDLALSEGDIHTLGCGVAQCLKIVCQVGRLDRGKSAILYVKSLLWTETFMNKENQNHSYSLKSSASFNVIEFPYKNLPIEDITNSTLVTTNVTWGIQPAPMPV
# T2 sequence (P05106 27-718 limits assumed): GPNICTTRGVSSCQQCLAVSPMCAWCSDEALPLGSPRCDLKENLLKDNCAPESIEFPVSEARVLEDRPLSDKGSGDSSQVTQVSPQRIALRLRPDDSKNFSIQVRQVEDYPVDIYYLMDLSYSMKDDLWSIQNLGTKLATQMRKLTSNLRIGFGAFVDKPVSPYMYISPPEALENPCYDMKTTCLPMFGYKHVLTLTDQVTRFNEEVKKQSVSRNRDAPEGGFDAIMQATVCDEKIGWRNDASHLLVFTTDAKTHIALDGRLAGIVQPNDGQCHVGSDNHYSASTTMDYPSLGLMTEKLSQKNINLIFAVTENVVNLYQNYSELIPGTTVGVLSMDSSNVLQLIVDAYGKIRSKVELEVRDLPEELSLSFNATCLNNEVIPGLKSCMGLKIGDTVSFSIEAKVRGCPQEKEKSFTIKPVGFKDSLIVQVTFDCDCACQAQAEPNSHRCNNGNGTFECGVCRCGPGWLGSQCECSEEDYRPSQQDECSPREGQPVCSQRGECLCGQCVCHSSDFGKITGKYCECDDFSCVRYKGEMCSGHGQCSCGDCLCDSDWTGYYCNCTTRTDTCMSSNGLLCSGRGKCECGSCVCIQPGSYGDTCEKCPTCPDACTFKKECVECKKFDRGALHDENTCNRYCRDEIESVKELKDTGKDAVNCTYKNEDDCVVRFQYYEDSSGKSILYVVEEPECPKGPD
# Source text: The molecular specificity of the αVβ3-RGD binding was investigated by comparing the selectivity of RGD functionalized surfaces with the selectivity of surfaces functionalized with cyclic RGE, a cyclic peptide of the same charge (RGD, pI=6.09; RGE pI=6.18) and differing by only one carbon atom. The effects of functionalizing only the probe or substrate were also investigated. The results of these experiments are summarized in Table 2 (no events were observed without functionalization). […] It can be concluded that one chemical contact is required for the high conductance to be observed, and that the specificity and frequency of events increases with the chemical specificity of the contact. In addition, specific binding results in larger current peaks at larger retraction distances than obtained with less-specific binding.
# RGE is a cyclic peptide differing from RGD by only one carbon atom.
# Functionalizing STM probes and substrates: The STM probes were etched from a 0.25 mm Pd wire (California Fine Wires) by an AC electrochemical etching method, and then insulated with high-density polyethylene, leaving an open apex of a few tens of nanometers in diameter. Before use, the probes were tested in 1 mM phosphate buffer (pH=7.4) at 0.5 V bias to ensure that the leakage current was <1 pA. For functionalization, the probe was gently cleaned using ethanol and water, respectively, and then dried with nitrogen flow. The probe was immersed in a 0.5 mg/mL peptide solution for ˜20 h. After that, the probe was taken out, rinsed with water, dried with nitrogen gas, and used immediately. Palladium substrates were prepared by depositing a 100 nm palladium film onto a 10 nm titanium adhesion layer coated onto a 750 μm thick silicon wafer using an electron-beam evaporator (Lesker PVD 75). The substrate was annealed with a hydrogen flame immediately before being functionalized by the same method as that for probe. Fourier transform infrared (FTIR) spectroscopy was used to characterize the functionalization. Pd substrates were also treated by UV- Ozone cleaner and H2 gas reduction (to remove PdO).
# Preparation of RGD and RGE: RGD peptide, cyclo(Arg-Gly-Asp-D-Phe-Cys), was obtained from Peptides International (Louisville, Ky.). RGE peptide, cyclo(Arg-Gly-Glu-D-Phe-Cys), was synthesized by CPC Scientific (Sunnyvale, Calif.) with a purity>95%. For chip and STM tip functionalization, peptides were dissolved to a final concentration of 0.5 mg/mL in a freshly degassed 1 mM phosphate buffer (pH=7.4), which was prepared using water from a Milli-Q system with a resistance of ˜18 MΩ and a total organic carbon contamination below 4 ppb.
# STM Measurements: Break junction measurements were carried out with a PicoSPM scanning probe microscope (Agilent Technologies). The Teflon liquid cells were cleaned in Piranha solution and then sonicated in Milli-Q water three times (Note that: the Piranha is highly corrosive and must be handled with extreme care). The current set point was 4 pA. Different sample bias was applied to the substrate as required. For better surface charge control, an Ag/AgCl with a salt bridge (10 mM KCl) was connected to the substrate. The tip was approached to the substrate with an integral and proportional gain of 1.0 and then left to stabilize for 0.5 h. For break junction measurements, the tip was first brought into the set point position. After 5 s of waiting, the tip was retracted 10 nm from the substrate with a speed of 0.17 nm/s, during which a current-distance trace was recorded. Subsequently, the tip was re-engaged and the retraction process repeated. About one hundred traces were collected for each experiment and at least three independent experiments were conducted for each sample (using a different substrate and tip each time).
# αVβ3 integrin = αVβ3 integrin (Homo sapiens, UniProt P05106+P06756); test: Capture of αVβ3 integrin by cyclic RGD peptide in junction device
# Chain of αVβ3 integrin (P06756 31-992 limits assumed): as the sequence (P06756 31-992 limits assumed) above
# Chain of αVβ3 integrin (P05106 27-718 limits assumed): as the sequence (P05106 27-718 limits assumed) above
# Source text: In experiments, the concentration used to obtain signals with the single molecule capture device had to be quite high (i.e., nanomolar or higher) in order for the probability of capturing a single molecule in a reasonable time to be significant. In some embodiments, this probability is proportional to the volume from which molecules can be captured in a reasonable time. For example, if the molecules diffuse freely with a diffusion constant D (e.g., about 10^−11 m^2/s), then the volume from which molecules can be collected in a time t, over a linear junction length L, is given approximately by πr^2L where r^2=Dt. Taking t=60 s and L=36 nm (approximately the length of the junction around the edge of a 12 nm diameter pore), about 40 molecules would be present at 1 nM concentration in the resulting volume of 6.5×10^−17 m^3 (=6.5×10^−14 liters). […] Thus, for a device with X=10 μm, the capture volume in 1 minute capture time becomes 10^−14 m^3 or almost 100× greater. In fact, upon the solution being flowed over the device, the effective capture length is orders of magnitude greater. […] Thus, if about a linear cm of fluid is flowed past a junction slowly enough that each volume of length equal to the junction length spends about a minute over the junction, then concentrations as small as a femtomole will yield a signal.
# T1 sequence (P13612 34-977 limits assumed): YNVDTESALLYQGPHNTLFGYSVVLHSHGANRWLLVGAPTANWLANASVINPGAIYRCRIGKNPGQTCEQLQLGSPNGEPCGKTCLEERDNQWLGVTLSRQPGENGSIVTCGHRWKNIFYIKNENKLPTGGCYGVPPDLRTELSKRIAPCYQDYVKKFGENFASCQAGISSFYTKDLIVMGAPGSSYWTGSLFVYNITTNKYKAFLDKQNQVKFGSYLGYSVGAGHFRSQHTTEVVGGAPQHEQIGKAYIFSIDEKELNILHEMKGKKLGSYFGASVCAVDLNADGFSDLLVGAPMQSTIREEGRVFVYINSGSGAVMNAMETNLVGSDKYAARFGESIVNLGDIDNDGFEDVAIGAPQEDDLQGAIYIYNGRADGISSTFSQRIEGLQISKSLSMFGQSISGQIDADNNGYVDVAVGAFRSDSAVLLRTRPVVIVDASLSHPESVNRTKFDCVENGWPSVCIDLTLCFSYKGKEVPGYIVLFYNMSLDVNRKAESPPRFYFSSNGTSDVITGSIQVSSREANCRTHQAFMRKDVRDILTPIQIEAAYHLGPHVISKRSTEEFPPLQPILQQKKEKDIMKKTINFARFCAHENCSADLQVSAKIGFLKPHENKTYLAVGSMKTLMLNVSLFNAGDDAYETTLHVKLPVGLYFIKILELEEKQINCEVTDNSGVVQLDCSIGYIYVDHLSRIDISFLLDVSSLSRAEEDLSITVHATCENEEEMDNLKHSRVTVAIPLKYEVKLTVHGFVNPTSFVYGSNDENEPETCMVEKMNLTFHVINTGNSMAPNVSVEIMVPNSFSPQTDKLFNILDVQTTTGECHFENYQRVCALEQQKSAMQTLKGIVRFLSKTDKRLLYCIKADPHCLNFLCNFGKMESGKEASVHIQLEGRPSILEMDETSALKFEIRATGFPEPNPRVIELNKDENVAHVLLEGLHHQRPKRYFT
# T1 sequence (P05556 21-728 limits assumed): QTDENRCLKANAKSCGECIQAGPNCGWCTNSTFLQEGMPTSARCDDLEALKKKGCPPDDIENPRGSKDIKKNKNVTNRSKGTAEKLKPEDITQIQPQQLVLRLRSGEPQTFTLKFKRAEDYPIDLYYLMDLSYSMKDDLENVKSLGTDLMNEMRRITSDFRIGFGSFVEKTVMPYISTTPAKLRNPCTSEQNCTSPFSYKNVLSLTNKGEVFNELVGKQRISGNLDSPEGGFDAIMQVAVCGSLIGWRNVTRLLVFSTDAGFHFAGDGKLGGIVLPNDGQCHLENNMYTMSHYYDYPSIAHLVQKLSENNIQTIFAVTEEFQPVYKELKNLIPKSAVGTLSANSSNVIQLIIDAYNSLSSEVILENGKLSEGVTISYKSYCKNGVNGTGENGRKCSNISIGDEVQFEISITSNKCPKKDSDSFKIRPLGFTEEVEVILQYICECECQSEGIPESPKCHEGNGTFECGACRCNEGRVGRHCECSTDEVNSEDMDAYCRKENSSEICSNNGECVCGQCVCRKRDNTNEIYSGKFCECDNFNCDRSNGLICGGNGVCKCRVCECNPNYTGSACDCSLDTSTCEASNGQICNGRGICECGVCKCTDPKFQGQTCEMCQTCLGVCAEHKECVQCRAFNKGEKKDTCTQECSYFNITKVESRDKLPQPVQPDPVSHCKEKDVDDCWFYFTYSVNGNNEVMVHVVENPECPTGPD
Substance,"frequency of large current events, α4β1 (α4β1; Modification Tip + Substrate)","frequency of large current events, α4β1 (α4β1; Modification Tip only)",Ratio (selectivity αvβ3 vs α4β1) (αvβ3; Modification Tip + Substrate),"frequency of large current events, αvβ3 (αvβ3; Modification Tip + Substrate)",Ratio (selectivity αvβ3 vs α4β1) (αvβ3; Modification Tip only),"frequency of large current events, αvβ3 (αvβ3; Modification Tip only)",binding process (αVβ3 integrin)
cyclo(RGE[dF]C) [RGE],0.25,0.28,1.2,0.31,1.3,0.36,
cyclo(RGD[dF]C) [RGD],0.19,0.21,3.1,0.57,2.6,0.55,almost irreversible
